Legend:
[1] = test system: memory loss induced by an acute administration of scopolamine (ESC); assay: Y-maze, short-term spatial memory, acute scopolamine (ESC) model; assay type: in vivo, mice
Procedure: Young male OF-1 mice (20-25 g), supplied by the National Center for the Laboratory Animals Production (CENPALAB, Cuba), were used. Before the experiment, the animals were adapted for seven days to laboratory conditions (controlled temperature 25±2° C., relative humidity 60±10% and light/dark cycles of 12 h). During this period, and during the experiment, the animals received ad libitum water and a standard diet for rodents supplied by CENPALAB. All procedures were carried out in accordance with the European Commission guidelines for the use and care of laboratory animals and approved by the Committee for the Care of Research Animals. The minimum number of animals and duration of observations required to obtain consistent data was used.
At the end of the adaptation period, the animals were randomly distributed according to their body weights in 5 experimental groups of 12 animals per group. Scopolamine hydrobromohydrate (ESC, Sigma Aldrich) was used to induce cognitive deficit, which was dissolved in physiological saline and administered intraperitoneally (ip) at a dose of 1.5 mg/kg, 30 minutes before the test (Miranda H F et al. in. J. Biomed. Sci., 2014 21 (1): 62-62). The doses of compound 3 used were 0.1, 1, 10 and 20 mg/kg of body weight. The compound was formulated using carboxymethyl cellulose (CMC). The administration scheme was designed as follows:
Group 1 (negative control) with normal cognitive function. Two administrations with an interval of 30 minutes with vehicle (5% CMC) by oral route and saline solution by i.p. route, respectively.
Group 2 (positive control) with cognitive dysfunction. Two administrations with an interval of 30 minutes, the first with vehicle (5% CMC), the second with ESC 1 mg/kg.
Group 3, 4, 5 and 6 treated with 3 (0.1, 1, 10 and 20 mg/kg). Two administrations with an interval of 30 minutes, the first with 3 at the dose corresponding to each group, the second with ESC 1 mg/kg. The behavioral evaluation was carried out 30 minutes after this second administration.
The study of short-term spatial memory was carried out through the study of novel spatial preference, using the Y-maze behavioral paradigm (40 cm long×9 cm wide×16 cm high) with extra-labyrinthine tracks around of the maze. The test consisted of two trials separated by an interval of 2 hours. In the first training test (acquisition), the mice were placed in the center of the maze and facing the end of one of the arms whose selection was random. After being positioned, they were allowed to explore the maze for 10 minutes with one of the arms closed (novel arm). At the end of this test, the mice were returned to their original cage until the second test (recovery), during which they could freely explore the three arms of the maze for 5 minutes. The total residence time (exploration) in each arm was measured and analyzed from video recordings. The entrance to the arm was defined as the entrance of the four legs of the animal in said arm. The residence time (sec) in each arm during the recovery test of the learned task was used for the statistical analysis. The maze was cleaned with 70% ethanol between runs. All mice were transported to the behavioral testing room in their home cages at least 1 day prior to testing. The experiments were carried out between 8:00 am and 12:30 pm.
All data are expressed as the mean±standard error of the mean (SEM). The Morris water maze data was analyzed in two ways. Escape latencies in the visible platform training phase were analyzed using a two-factor ANOVA (treatment×trial). For the study of long-term memory, the last escape latency value of the training phase with the visible platform (D1 V4) and the first value of the test with the hidden platform performed 24 h later (D2T1) were used. Mice with intact long-term memory capacity should quickly reach the hidden platform in the first test. A scoring system was generated with the difference D2T1−D1 V4 and with the ratio D2T1/D1V4. […]

[2] = test system: mitochondria isolated from rat liver; assay: Production of H2O2 / reactive oxygen species (Amplex Red) in isolated mitochondria; assay type: biochemical; details: dose range tested (0.1-100 μmol/L)
Procedure: Isolation of rat mitochondria: Mitochondria were isolated by the classical method of differential centrifugation from the liver of male Wistar rats (Mirandola S R, et al., in J Neurosci Res 2010; 88: 630-39).
Incubation procedures: Mitochondria were energized with 5 mmol/L potassium succinate (plus 2.5 μmol/L rotenone) in standard incubation medium containing 125 mmol/L sucrose, 65 mmol/L KCl and 10 mmol/L of HEPES-KOH, pH 7.4, at 30° C.
Mitochondrial membrane potential and ROS were determined by spectrophotometry, using as fluorescent probes, respectively, safranin (10 μmol/L) (Zanotti A., and Azzone G F in Archives of Biochemistry and Biophysics 1980, 201 (1), 255-265) and Amplex Red (Molecular Probes, OR, Eugene) in the presence of horseradish peroxidase (1 IU/mL) (Votyakova and Reynolds, in J Neurochem. 2001, 79 (2), 266-77). Measurements were made in a Hitachi fluorescence spectrophotometer, model F-4500 (Tokyo, Japan) at λexc 495/λem 586 nm (safranin) and at λexc 563/λem 587 nm (Amplex Red). These experiments were carried out in the presence of 0.1 mmol/L of EGTA and the evaluated compound was N-[4-(1-naphthylamino)-4-oxobutanoyl]-β-alanine (1) in a concentration range of 0.1 to 100 μmol/L. Mitochondrial swelling was estimated spectrophotometrically from the decrease in absorbance at 540 nm, using a Hitachi spectrophotometer, Model U-2910 (Japan). […]

[3] = test system: mitochondria isolated from rat liver; assay: Mitochondrial swelling induced by Ca2+ and Pi (absorbance 540 nm); assay type: biochemical; details: induced by 50 μmol/L Ca2+ and 2 mmol/L Pi; similar concentrations (0.1-100 μmol/L)
Source text: In this case, it was observed that in the control group (in the presence of Ca^2+) the maximum absorbance values are shown, as a measure of maximum swelling. […] These effects correspond to the observed effects on the dissipation of the mitochondria membrane potential.
Isolation of rat mitochondria: Mitochondria were isolated by the classical method of differential centrifugation from the liver of male Wistar rats (Mirandola S R, et al., in J Neurosci Res 2010; 88: 630-39). […]
Mitochondrial membrane potential and ROS were determined by spectrophotometry, using as fluorescent probes, respectively, safranin (10 μmol/L) (Zanotti A., and Azzone G F in Archives of Biochemistry and Biophysics 1980, 201 (1), 255-265) and Amplex Red (Molecular Probes, OR, Eugene) in the presence of horseradish peroxidase (1 IU/mL) (Votyakova and Reynolds, in J Neurochem. 2001, 79 (2), 266-77). Measurements were made in a Hitachi fluorescence spectrophotometer, model F-4500 (Tokyo, Japan) at λexc 495/λem 586 nm (safranin) and at λexc 563/λem 587 nm (Amplex Red). […]
Data analysis: In all cases, the normal distribution and homogeneity of variances of the data were evaluated using the Kolmogorov Smirnov and Levene tests, respectively. […]

Question: CN1[C@@H]2C[C@@H](OC(=O)[C@H](CO)c3ccccc3)C[C@H]1[C@@H]1O[C@@H]12 [ESC, Scopolamine hydrobromohydrate, reference compound] was tested. Which “residence time in the novel arm” value ([1]; ESC group (control group 133.8±9.3 sec), p<0.001) did it give?
Answer: 98.8 ± 4.2 s

Question: O=C(O)CCNC(=O)CCC(=O)Nc1cccc2ccccc12 [compound 1, N-[4-(1-naphthylamino)-4-oxobutanoyl]-β-alanine] was tested. Which “production of hydrogen peroxide (H2O2)” value [2] did it give?
Answer: protects against H2O2 production

Question: What about the “mitochondrial swelling (absorbance at 540 nm)” value [3] of the same compound?
Answer: reverses the effect of Ca^2+-induced swelling

Question: For COc1cc2c(cc1OC)C(=O)C(CC1CCN(Cc3ccccc3)CC1)C2 (centres unmarked) [donepezil, reference compound], which “deficit induced by ESC in Y-maze” value ([1]; donepezil 1 mg/kg, ip, 30 minutes before the test) is on record?
Answer: also reversed the deficit induced by ESC

Question: And the “residence time in the novel arm” value ([1]; donepezil group vs ESC)?
Answer: significantly longer than that of ESC

— US20240299334A1, “PHARMACEUTICAL COMPOSITION OF NAPHTHALENE DERIVATIVES AS MULTI-TARGETED THERAPEUTIC AGENTS FOR THE TREATMENT OF ALZHEIMER'S DISEASE” (CENTRO DE NEUROCIENCIAS DE CUBA, CNEURO, priority 2020, published 2024)
